Test: MARIPOSA Phase 3, adverse events
Format: in vivo, human
Excerpt: • 1. […] Incidence and Severity of Adverse Events (AEs) [Time Frame: Up to approximately 60 months]. Incidence and severity of treatment emergent adverse events (TEAEs) will be reported. Any adverse event occurring at or after the initial administration of study treatment through the day of last dose plus 30 days, or until the start of subsequent anticancer therapy (if earlier), is considered to be treatment emergent. • 8. Number of Participants with Clinical Laboratory Abnormalities [Time Frame: Up to approximately 60 months]. Number of participants with clinical laboratory abnormalities (serum chemistry, hematology, blood coagulation, and urine samples) will be reported. • 9. Number of Participants with Vital Signs Abnormalities [Time Frame: Up to approximately 60 months]. Number of participants with vital signs abnormalities (temperature, heart rate, respiratory rate, oxygen saturation, blood pressure) will be reported. • 10. Number of Participants with Physical Examination Abnormalities [Time Frame: Up to approximately 60 months]. Number of participants with physical examination abnormalities will be reported. • 11. […] The NSCLC-SAQ contains 7 items that assess cough, pain, dyspnea, fatigue, and poor appetite over a 7-day recall period. Each multi-item scale and individual item will be summarized using count and percent by visit. • 15. […] EORTC-QLQ-C30 is a core 30-item questionnaire for evaluating the health-related quality of life (HRQOL) of participants participating in cancer clinical studies. • 16.

[1] = TEAE leading to dose reductions of any study agent
[2] = TEAE leading to interruptions of any study agent
[3] = adverse events, listed as osimertinib
[4] = pneumonitis and interstitial lung disease

For C=CC(=O)Nc1cc(Nc2nccc(-c3cn(C)c4ccccc34)n2)c(OC)cc1N(C)CCN(C)C [Osimertinib], the Skin lesion [1] was 0 no. (%), the Stomatitis [1] was 0 no. (%) and the Asthenia [2] was 1 (0.2) no. (%). For the same compound, the COVID-19 [2] was 36 (8) no. (%), the Deep vein thrombosis [2] was 2 (0.5) no. (%) and the Dermatitis acneiform [2] was 1 (0.2) no. (%). For the same compound, the Diarrhea [2] was 6 (1) no. (%), the Hypoalbuminemia [2] was 0 no. (%) and the Increased alanine aminotransferase [2] was 12 (3) no. (%). The Increased aspartate aminotransferase [2] was 11 (3) no. (%), the “Increased γ-glutamyltransferase” value [2] was 5 (1) no. (%) and the Paronychia [2] was 4 (1) no. (%). For the same compound, the Peripheral edema [2] was 0 no. (%), the Pneumonia [2] was 18 (4) no. (%) and the Pulmonary embolism [2] was 9 (2) no. (%). For the same compound, the Rash [2] was 4 (1) no. (%), the Stomatitis [2] was 4 (1) no. (%) and the “Any venous thromboembolism event leading to death” value (VTE) was 2 (0.5) no. (%). The “Any venous thromboembolism event leading to discontinuation of any agent” value (VTE) was 2 (0.5) no. (%), the “Any venous thromboembolism event, Grade 1” value (VTE) was 0 no. (%) and the “Any venous thromboembolism event, Grade 2” value (VTE) was 24 (6) no. (%). For the same compound, the “Any venous thromboembolism event, Grade 3” value (VTE) was 12 (3) no. (%), the “Any venous thromboembolism event, Grade 4” value (VTE) was 1 (0.2) no. (%) and the “Any venous thromboembolism event, Grade 5” value (VTE) was 2 (0.5) no. (%). For the same compound, the Axillary vein thrombosis (VTE event) was 0 no. (%), the Deep vein thrombosis (VTE event) was 11 (3) no. (%) and the Embolism (VTE event) was 3 (1) no. (%). The Embolism venous (VTE event) was 1 (0.2) no. (%), the Jugular vein thrombosis (VTE event) was 0 no. (%) and the Pelvic venous thrombosis (VTE event) was 1 (0.2) no. (%). For the same compound, the Portal vein thrombosis (VTE event) was 0 no. (%), the Post thrombotic syndrome (VTE event) was 0 no. (%) and the Pulmonary embolism (VTE event) was 20 (5) no. (%). For the same compound, the Pulmonary infarction (VTE event) was 0 no. (%), the Pulmonary thrombosis (VTE event) was 1 (0.2) no. (%) and the Sigmoid sinus thrombosis (VTE event) was 0 no. (%). The Superficial vein thrombosis (VTE event) was 0 no. (%), the “Superior sagittal sinus thrombosis” value (VTE event) was 0 no. (%) and the “Superior vena cava syndrome” value (VTE event) was 1 (0.2) no. (%). The Thrombophlebitis (VTE event) was 4 (1) no. (%), the Thrombosis (VTE event) was 1 (0.2) no. (%) and the Vena cava thrombosis (VTE event) was 0 no. (%). For the same compound, the Venous thrombosis (VTE event) was 1 (0.2) no. (%), the Venous thrombosis limb (VTE event) was 1 (0.2) no. (%) and the “Any event leading to discontinuations of any study agent” value (adverse events) was 58 (14) no. (%). For the same compound, the “Any event leading to interruptions of any study agent” value (adverse events) was 165 (39) no. (%), the “Any event leading to reductions of any study agent” value (adverse events) was 23 (5) no. (%) and the “Any event resulting in death” value (adverse events) was 31 (7) no. (%). For the same compound, the Any serious event (adverse events) was 143 (33) no. (%), the “Grade ≥3” value (adverse events) was 183 (43) no. (%) and the Any event (adverse events, safety population) was 425 (99) no. (%). The “Any event leading to discontinuations of any study agent” value [3] was 58 (14%) no. (%), the “Any event leading to interruptions of any study agent” value [3] was 165 (39%) no. (%) and the “Any event leading to reductions of any study agent” value [3] was 23 (5%) no. (%). The “Any event resulting in death” value [3] was 31 (7%) no. (%), the Interstitial lung disease/pneumonitis (any grade, both groups) was 3% and the “Interstitial lung disease/pneumonitis, grade 3 or higher” value (both groups) was 1%. For the same compound, the “Adverse events of grade 3 or higher” value (in vivo) was 43%, the “Discontinuations of all agents due to treatment-related adverse events” value (in vivo) was 3% and the “Receiving anticoagulation at time of first VTE” value (in vivo) was 0%. For the same compound, the Serious adverse events (in vivo) was 33%, the “Venous thromboembolic (VTE) events” value (in vivo) was 9% and the “VTE events in the first 4 months of treatment” value (of VTE events) was 33%. The “First bleeding event while on anticoagulants” value (on anticoagulants) was 14 (3) no. (%), the “Recurrent venous thromboembolism event while on anticoagulants” value (on anticoagulants) was 0 no. (%) and the Anticoagulation concomitant use (on study) was 81 (19) no. (%). The “Interstitial lung disease, Duration of event, median no. of days (range)” value [4] was 20 (1-189) days, the “Interstitial lung disease, No. of days to first onset, median (range)” value [4] was 115 (9-512) days and the “Interstitial lung disease, No. of patients (%)” value [4] was 13 (3) no. (%). The Alanine aminotransferase increased (serious TEAE) was 6 (1) no. (%), the COVID-19 (serious TEAE) was 10 (2) no. (%) and the Cardiac failure (serious TEAE) was 5 (1) no. (%). For the same compound, the Deep vein thrombosis (serious TEAE) was 2 (0.5) no. (%), the Dyspnea (serious TEAE) was 11 (3) no. (%) and the Hypoalbuminemia (serious TEAE) was 0 no. (%). The Hyponatremia (serious TEAE) was 4 (1) no. (%), the Infusion related reaction (serious TEAE) was 0 no. (%) and the Interstitial lung disease (serious TEAE) was 5 (1) no. (%). The Pericardial effusion (serious TEAE) was 5 (1) no. (%), the Pleural effusion (serious TEAE) was 17 (4) no. (%) and the Pneumonia (serious TEAE) was 21 (5) no. (%). The Pneumonitis (serious TEAE) was 8 (2) no. (%), the Pulmonary embolism (serious TEAE) was 10 (2) no. (%) and the Rash (serious TEAE) was 0 no. (%). The Respiratory failure (serious TEAE) was 2 (0.5) no. (%), the Any event (treatment-related AE) was 378 (88) no. (%) and the “Any event resulting in death” value (treatment-related AE) was 2 (0.5) no. (%). The Any serious event (treatment-related AE) was 24 (6) no. (%), the “Grade ≥3” value (treatment-related AE) was 59 (14) no. (%) and the Decreased appetite (treatment-related AE, All) was 40 (9) no. (%). The Dermatitis acneiform (treatment-related AE, All) was 54 (13) no. (%), the Diarrhea (treatment-related AE, All) was 149 (35) no. (%) and the Dry skin (treatment-related AE, All) was 54 (13) no. (%). For the same compound, the Hypoalbuminemia (treatment-related AE, All) was 11 (3) no. (%), the Increased alanine aminotransferase (treatment-related AE, All) was 38 (9) no. (%) and the Increased aspartate aminotransferase (treatment-related AE, All) was 34 (8) no. (%). For the same compound, the Infusion-related reaction (treatment-related AE, All) was 0 no. (%), the Nausea (treatment-related AE, All) was 32 (7) no. (%) and the Paronychia (treatment-related AE, All) was 115 (27) no. (%). For the same compound, the Peripheral edema (treatment-related AE, All) was 10 (2) no. (%), the Pruritus (treatment-related AE, All) was 63 (15) no. (%) and the Rash (treatment-related AE, All) was 121 (28) no. (%). For the same compound, the Stomatitis (treatment-related AE, All) was 77 (18) no. (%), the Thrombocytopenia (treatment-related AE, All) was 75 (18) no. (%) and the Decreased appetite (treatment-related AE, Grade ≥3) was 1 (0.2) no. (%). The Dermatitis acneiform (treatment-related AE, Grade ≥3) was 0 no. (%), the Diarrhea (treatment-related AE, Grade ≥3) was 2 (0.5) no. (%) and the Dry skin (treatment-related AE, Grade ≥3) was 1 (0.2) no. (%). The Hypoalbuminemia (treatment-related AE, Grade ≥3) was 0 no. (%), the Increased alanine aminotransferase (treatment-related AE, Grade ≥3) was 4 (1) no. (%) and the Increased aspartate aminotransferase (treatment-related AE, Grade ≥3) was 1 (0.2) no. (%). The Infusion-related reaction (treatment-related AE, Grade ≥3) was 0 no. (%), the Nausea (treatment-related AE, Grade ≥3) was 1 (0.2) no. (%) and the Paronychia (treatment-related AE, Grade ≥3) was 2 (0.5) no. (%). For the same compound, the Peripheral edema (treatment-related AE, Grade ≥3) was 0 no. (%), the Pruritus (treatment-related AE, Grade ≥3) was 1 (0.2) no. (%) and the Rash (treatment-related AE, Grade ≥3) was 3 (1) no. (%). For the same compound, the Stomatitis (treatment-related AE, Grade ≥3) was 1 (0.2) no. (%) and the Thrombocytopenia (treatment-related AE, Grade ≥3) was 3 (1) no. (%).

Reference: US20260356957A1, “METHODS FOR TREATMENT OF NON-SMALL CELL LUNG CANCER (NSCLC)” (Janssen Biotech, Inc., priority 2023, published 2026)
